Results: patent US12263169B2, “Methods of treating neuroepithelial tumors using selective glucocorticoid receptor modulators” (Corcept Therapeutics, Inc., priority 2017, dated 2025)

What was measured:
[1] = tested on: GBM8; assay: Cell growth inhibition (Alamar Blue cell viability assay); type: cell-based; settings: Homo sapiens, GBM8 patient-derived neurosphere line, 72 hours treatment, triplicate
Method: (§1) The effect of GRMs on the growth in culture of human and mouse glioblastoma cells was examined. The GRMs mifepristone and CORT125134 inhibited growth in culture of each of five different glioblastoma cell lines. The highest drug concentration tested was 50 μM. The cell lines used were the Standard Serum Human glioblastoma (GBM) Cell lines: U251, GL261, U87, and the patient-derived neurosphere cell lines GBM8 and GBM4. Cells were plated at cell numbers of 2000 cells/well, in a 96-well format; the experiments were done in triplicate. Cell growth inhibition by the applied drugs was assayed. Cell growth inhibition was quantified by the Alamar Blue method using a commercial assay kit. Cell growth inhibition was determined (“read out”) after 72 hours of treatment. […] Cell Cultures: The human glioblastoma cell lines (obtained from the American Type Culture Collection (ATCC), Manassas VA, USA) tested were U251 and U87 (human), and GL261 (mouse). These were grown as an adherent monolayer cultured in DMEM supplemented with 10% fetal bovine serum (FBS) (Seradigm, a subsidiary of VWR, Radnor PA, USA) and 1% glutamine pen-strep (Omega Scientific, Tarzana CA, USA). GBM8 (passage 12) and GBM4 are patient derived glioma stem cell lines obtained and cultured as neurospheres (spheroids) as described by Galli et al., “Isolation and characterization of tumorigenic, stem-like neural precursors from human glioblastoma” Cancer Res 2004, 64 (19), 7011-21 and Lee et al., “Tumor stem cells derived from glioblastomas cultured in bFGF and EGF more closely mirror the phenotype and genotype of primary tumors than do serum-cultured cell lines” Cancer Cell 2006, 9 (5), 391-403. Initial GBM surgical samples were dissociated in stem cell isolation medium containing human recombinant EGF ([…]), human bFGF ([…]) and heparin (2 μg/ml), washed, filtered through a 30 μm mesh and plated onto ultra-low adherence flasks at a concentration of 5×10^5 to 1.5×10^6 viable cells/ml. Sphere cultures were passaged by dissociation, washing and resuspension in neural stem cell culture medium (NeuroCult™ NS-A Proliferation kit #05751, Stemcell Technologies, Vancouver, BC, CA), according to the manufacturer's instructions. Cell Viability Assay: Cells were seeded into 96-well plates at a density of 2000 cells per well. Compounds were added 24 hours after the seeding of cells. All compounds were diluted in 1% FBS/DMEM. The control was treated with media alone. After 3 days incubation (37° C./5% CO2) Alamar Blue (#BUF012B, AbDSerotec, Kidlington, UK) was added according to the manufacturer's protocol, directly to the medium and placed back in the tissue culture incubator (37° C. 5% CO2). After 3-18 hours fluorescent signal was read at 544ex/590em (SpectraMax i3x plate reader, Molecular Devices, San Jose CA, USA) to determine the number of viable cells. The IC50 values were calculated using commercial software (Prism 5 Software, GraphPad, La Jolla CA, USA). After 24 hours post incubation, cells were treated with drugs at various concentrations for 72 hours. Cell viability was measured after 72 hours by Alamar Blue and results reported as triplicate experiment. The following Table presents the IC50 values as determined in these experiments.

[2] = tested on: U251; assay: as above; type: cell-based; settings: Homo sapiens, U-251, U251 standard GBM line, 72 hours treatment, triplicate
Method: as §1

[3] = tested on: GBM4; assay: as above; type: cell-based; settings: Homo sapiens, GBM4 patient-derived neurosphere line, 72 hours treatment, triplicate
Method: as §1

[4] = tested on: U87; assay: as above; type: cell-based; settings: Homo sapiens, U-87 MG, U87 standard GBM line, 72 hours treatment, triplicate
Method: as §1

[5] = tested on: GL261; assay: as above; type: cell-based; settings: Mus musculus, GL261 standard GBM line, 72 hours treatment, triplicate
Method: as §1

[6] = tested on: glioblastoma cell lines U251, GL261, U87, GBM8 and GBM4; assay: Cell growth inhibition, summary over five glioblastoma cell lines; type: cell-based, human and mouse; settings: range over five glioblastoma cell lines, 72 hours treatment, Alamar Blue; read-out: half-maximal inhibition concentration (IC50) values, range over the cell lines
Method: The effect of GRMs on the growth in culture of human and mouse glioblastoma cells was examined. The GRMs mifepristone and CORT125134 inhibited growth in culture of each of five different glioblastoma cell lines. The highest drug concentration tested was 50 μM. The cell lines used were the Standard Serum Human glioblastoma (GBM) Cell lines: U251, GL261, U87, and the patient-derived neurosphere cell lines GBM8 and GBM4. Cells were plated at cell numbers of 2000 cells/well, in a 96-well format; the experiments were done in triplicate. Cell growth inhibition by the applied drugs was assayed. Cell growth inhibition was quantified by the Alamar Blue method using a commercial assay kit. Cell growth inhibition was determined (“read out”) after 72 hours of treatment. […] Cell Cultures: The human glioblastoma cell lines (obtained from the American Type Culture Collection (ATCC), Manassas VA, USA) tested were U251 and U87 (human), and GL261 (mouse). […] After 3-18 hours fluorescent signal was read at 544ex/590em (SpectraMax i3x plate reader, Molecular Devices, San Jose CA, USA) to determine the number of viable cells. The IC50 values were calculated using commercial software (Prism 5 Software, GraphPad, La Jolla CA, USA). […] Cell viability was measured after 72 hours by Alamar Blue and results reported as triplicate experiment. The following Table presents the IC50 values as determined in these experiments.

[7] = tested on: meningioma; assay: Treating a meningioma patient with SGRM, tumor load monitored by enhanced MRI; type: in vivo, human; settings: 200 mg once a day for eight weeks
Method: A patient complains of tinnitus and right-sided hearing loss for 6 months. […] They are treated with CORT125134 at a dose of 200 mg once a day for eight weeks. Their tumor load is monitored using enhanced MRI before, during and after the treatment.
A patient complains of tinnitus and right-sided hearing loss for 6 months. […] They are treated with CORT125281 at a dose of 200 mg once a day for eight weeks. Their tumor load is monitored using enhanced MRI before, during and after the treatment.

SMILES: CC#C[C@]1(O)CC[C@H]2[C@@H]3CCC4=CC(=O)CCC4=C3[C@@H](c3ccc(N(C)C)cc3)C[C@@]21C [Mifepristone, 17-β-hydrox-11-β-(4-dimethyl-aminophenyl)17-α-(1-propynyl)estra-4,9-dien-3-one, reference compound]
- IC50 [1]: 24 µM
- IC50 [2]: 18.4 µM
- IC50 [3]: 24.1 µM
- IC50 [4]: 18.4 µM
- IC50 [5]: 15.7 µM
- IC50 [6]: 16 to 24 µM

SMILES: Cn1cc(S(=O)(=O)N2CCC3=Cc4c(cnn4-c4ccc(F)cc4)C[C@]3(C(=O)c3cc(C(F)(F)F)ccn3)C2)cn1 [CORT125134, (R)-(1-(4-fluorophenyl)-6-((1-methyl-1H-pyrazol-4-yl)sulfonyl)-4,4a,5,6,7,8-hexahydro-1H-pyrazolo[3,4-g]isoquinolin-4a-yl)(4-(trifluoromethyl)pyridin-2-yl)methanone]
- IC50 [1]: 29.1 µM
- IC50 [2]: 12.5 µM
- IC50 [3]: 20.7 µM
- IC50 [4]: 5.42 µM
- IC50 [5]: 5.86 µM
- reduction of tumor size as compared to baseline at the end of the treatment period [7]: more than 50%
- IC50 [6]: 5 to 29 µM

SMILES: Cn1ncc(S(=O)(=O)N2CC[C@H]3Cc4c(cnn4-c4ccc(F)cc4)C[C@]3(C(=O)c3cc(C(F)(F)F)ccn3)C2)n1 [CORT125281, ((4aR,8aS)-1-(4-fluorophenyl)-6-((2-methyl-2H-1,2,3-triazol-4-yl)sulfonyl)-4,4a,5,6,7,8,8a,9-octahydro-1H-pyrazolo[3,4-g]isoquinolin-4a-yl)(4-(trifluoromethyl)pyridin-2-yl)methanone]
- reduction of tumor size as compared to baseline at the end of the treatment period [7]: more than 50%
